Values of other authors in PubChem BioAssay AID1259409 (Chemical Carcinogenesis Research Information System (CCRIS), 2018).
Where a SMILES comes first, the peptide text is derived from it.

Tested on: rodent chemically induced tumor inhibition, incidence and multiplicity
Experiment: CCRIS tumor inhibitor studies

## Cc1c(O)cc2c(c1C)OC(C)(CCCC(C)CCCC(C)CCCC(C)C)CC2 (centres undefined)
Carcinogen: N-NITROSODIETHYLAMINE, 55-18-5, Dose [Inhibitor]: 0, 5% IN BASAL DIET BEGINNING AT 8 WK OF AGE AND CONTINUING FOR 22 MO (STUDY DURATION: 22 MO), Route [Inhibitor]: ORAL, Species: MOUSE, Strain/Sex: 6HF1/MALE, Target Tissue: Type of Lesion: ESOPHAGUS: SQUAMOUS CELL CARCINOMA, Dose [Carcinogen]: 100 MG/L IN DRINKING WATER DURING 11-13 WK OF AGE, Promoter: NONE USED
  tumour outcome (control, treated, inhibition, significance): 6/50 (12%), 0/50 (0%), 100%, not calculated
Carcinogen: N-NITROSODIETHYLAMINE, 55-18-5, Dose [Inhibitor]: 0, 5% IN BASAL DIET BEGINNING AT 8 WK OF AGE AND CONTINUING FOR 22 MO (STUDY DURATION: 22 MO), Route [Inhibitor]: ORAL, Species: MOUSE, Strain/Sex: 6HF1/MALE, Target Tissue: Type of Lesion: FORESTOMACH: SQUAMOUS CELL CARCINOMA, Dose [Carcinogen]: 100 MG/L IN DRINKING WATER DURING 11-13 WK OF AGE, Promoter: NONE USED
  tumour outcome (control, treated, inhibition, significance): 82%, 72%, 12%, not calculated
Carcinogen: N-NITROSODIETHYLAMINE, 55-18-5, Dose [Inhibitor]: 0, 5% IN BASAL DIET BEGINNING AT 8 WK OF AGE AND CONTINUING FOR 22 MO (STUDY DURATION: 22 MO), Route [Inhibitor]: ORAL, Species: MOUSE, Strain/Sex: 6HF1/MALE, Target Tissue: Type of Lesion: LIVER: TUMOR, Dose [Carcinogen]: 100 MG/L IN DRINKING WATER DURING 11-13 WK OF AGE, Promoter: NONE USED
  tumour outcome (control, treated, inhibition, significance): 39/50 (78%), 40/50 (80%), -3%, not calculated
Carcinogen: N-NITROSODIETHYLAMINE, 55-18-5, Dose [Inhibitor]: 0, 5% IN BASAL DIET BEGINNING AT 8 WK OF AGE AND CONTINUING FOR 22 MO (STUDY DURATION: 22 MO), Route [Inhibitor]: ORAL, Species: MOUSE, Strain/Sex: 6HF1/MALE, Target Tissue: Type of Lesion: LUNG: TUMOR, Dose [Carcinogen]: 100 MG/L IN DRINKING WATER DURING 11-13 WK OF AGE, Promoter: NONE USED
  tumour outcome (control, treated, inhibition, significance): 42/50 (84%), 24/50 (48%), 43%, p<0.05

## C=C(C)[C@@H]1CC=C2C(=CC[C@]3(C)[C@@H](C(CCC=C(C)C)C(=O)O)[C@H](O)C[C@@]23C)[C@@]1(C)CCC(=O)O (some centres undefined)
Carcinogen: 7,12-DIMETHYLBENZ[A]ANTHRACENE, 57-97-6, Dose [Inhibitor]: 0, 0.2 UMOL 2/WK FOR 19 WK BEGINNING 1 WK POST CARCINOGEN DOSE (STUDY DURATION: 20 WK), Route [Inhibitor]: DERMAL, Species: MOUSE, Strain/Sex: ICR, Target Tissue: Type of Lesion: SKIN: PAPILLOMA, Dose [Carcinogen]: 50 UG ONCE, Promoter: 12-O-TETRADECANOYLPHORBOL-13-ACETATE, 16561-29-8
  tumour outcome (control, treated, inhibition, significance): 73%, 32%, 56%, not calculated
Carcinogen: 7,12-DIMETHYLBENZ[A]ANTHRACENE, 57-97-6, Dose [Inhibitor]: 0, 0.2 UMOL IN 100 µL ACETONE:DMSO (9:1) 2/WK FOR 20 WK APPLIED 30 MIN PRIOR TO EACH CARCINOGEN DOSE (STUDY DURATION: 20, Route [Inhibitor]: DERMAL, Species: MOUSE, Strain/Sex: ICR/FEMALE, Target Tissue: Type of Lesion: SKIN: PAPILLOMA, Dose [Carcinogen]: 50 UG IN 100 µL ACETONE ONCE, Promoter: 12-O-TETRADECANOYLPHORBOL-13-ACETATE, 16561-29-8
  tumour outcome (control, treated, inhibition, significance): 73%, 33%, 55%, p<0.05

## C=CC(C)(O)CCC=C(C)C (centres undefined)
Carcinogen: AZOXYMETHANE, 25843-45-2, Dose [Inhibitor]: 0, 5 MG/G IN DIET FOR 22 WK BEGINNING 3 D POST LAST CARCINOGEN DOSE (STUDY DURATION: 25 WK), Route [Inhibitor]: ORAL, Species: RAT, Strain/Sex: F344/MALE, Target Tissue: Type of Lesion: DUODENUM: ADENOCARCINOMA, Dose [Carcinogen]: 15 MG/KG BW 2/WK FOR 3 WK, Promoter: NONE USED
  tumour outcome (control, treated, inhibition, significance): 50%, 26%, 48%, not significant
Carcinogen: AZOXYMETHANE, 25843-45-2, Dose [Inhibitor]: 0, 5 MG/G IN DIET FOR 22 WK BEGINNING 3 D POST LAST CARCINOGEN DOSE (STUDY DURATION: 25 WK), Route [Inhibitor]: ORAL, Species: RAT, Strain/Sex: F344/MALE, Target Tissue: Type of Lesion: LARGE BOWEL: ADENOMATOUS POLYP, Dose [Carcinogen]: 15 MG/KG BW 2/WK FOR 3 WK, Promoter: NONE USED
  tumour outcome (control, treated, inhibition, significance): 82%, 79%, 4%, not significant

## O=C1CCN(c2ccccc2)N1
Carcinogen: 7,12-DIMETHYLBENZ[A]ANTHRACENE, 57-97-6, Dose [Inhibitor]: 30 UMOL APPLIED 30-40 MIN BEFORE EACH TPA TREATMENT AND CONCURRENTLY WITH TPA (STUDY DURATION: 18 WK), Route [Inhibitor]: DERMAL, Species: MOUSE, Strain/Sex: CD-1/FEMALE, Target Tissue: Type of Lesion: SKIN: PAPILLOMA, Dose [Carcinogen]: 200 NMOL ONCE, Promoter: 12-O-TETRADECANOYLPHORBOL-13-ACETATE, 16561-29-8
  tumour outcome (control, treated, inhibition, significance): 96%, 100%, -4%, not calculated

## C[C@H]1CC[C@@]2(C)C(=CC[C@@H]3[C@@H]2CC[C@]2(C)C(=O)CC[C@@H]32)C1
Carcinogen: 7,12-DIMETHYLBENZ[A]ANTHRACENE, 57-97-6, Dose [Inhibitor]: 100 UG IN 0.2 ML ACETONE 1 HR BEFORE EACH WEEKLY APPLICATION OF DMBA (STUDY DURATION: 290 D), Route [Inhibitor]: DERMAL, Species: MOUSE, Strain/Sex: CD-1/FEMALE, Target Tissue: Type of Lesion: SKIN: CARCINOMA, Dose [Carcinogen]: 200 NMOL AT 6-7 WK OF AGE THEN 100 NMOL IN 0.2 ML ACETONE 1 WK BEGINNING 2 WK LATER, Promoter: NONE USED
  tumour outcome (control, treated, inhibition, significance): 14/28 (50%), 1/28 (4%), 92%, p<0.001
Carcinogen: 7,12-DIMETHYLBENZ[A]ANTHRACENE, 57-97-6, Dose [Inhibitor]: 400 UG IN 0.2 ML ACETONE 1 HR BEFORE EACH WEEKLY APPLICATION OF DMBA (STUDY DURATION: 290 D), Route [Inhibitor]: DERMAL, Species: MOUSE, Strain/Sex: CD-1/FEMALE, Target Tissue: Type of Lesion: SKIN: CARCINOMA, Dose [Carcinogen]: 200 NMOL AT 6-7 WK OF AGE THEN 100 NMOL IN 0.2 ML ACETONE 1/WK BEGINNING 2 WK LATER, Promoter: NONE USED
  outcome: 14/28 (50%), 3/29 (10), 80%, p<0.001

## C=C(C)C1C=CC(C)(O)CC1 (centres undefined)
Carcinogen: BENZO[A]PYRENE, 50-32-8, Dose [Inhibitor]: 0, 20 MG 3/WK FOR 4 WK ON DAYS OTHER THAN THE CARCINOGEN TREATMENT (STUDY DURATION: 20 WK), Route [Inhibitor]: GAVAGE, Species: MOUSE, Strain/Sex: STRAIN-A/FEMALE, Target Tissue: Type of Lesion: FORESTOMACH: TUMOR, Dose [Carcinogen]: 1 MG IN 0.2 ML COTTONSEED OIL 2/WK FOR 4 WK, Promoter: NONE USED
  tumour outcome (control, treated, inhibition, significance): 13/19 (68%), 7/14 (50%), 26%, not significant

## N[C@@H](CCC(=O)O)C(=O)N[C@@H](Cc1c[nH]c2ccccc12)C(=O)O (H-Glu-Trp-OH)
Carcinogen: NONE, Dose [Inhibitor]: 5 UG 1X/D 5 D/WK FOR 12 MONTHS (STUDY DURATION: 1200 D), Route [Inhibitor]: SUBCUTANEOUS, Species: RAT, Strain/Sex: LIO/FEMALE, Target Tissue: Type of Lesion: TUMORS
  tumour outcome (control, treated, inhibition, significance): 12/31 (38.7%), 10/40 (25.0%), 35%, not significant

## ClC1C(Cl)C(Cl)C(Cl)C(Cl)C1Cl (centres undefined)
Carcinogen: DIETHYLNITROSAMINE, 55-18-5, Dose [Inhibitor]: 0, 250 PPM IN DIET FOR 24 WK BEGINNING AT 28 D OF AGE (STUDY DURATION: 26 WK), Route [Inhibitor]: ORAL, Species: MOUSE, Strain/Sex: B6C3F1/MALE, Target Tissue: Type of Lesion: LIVER: ADENOMA, Dose [Carcinogen]: 5 UG/G BW IN 0.1 ML SALINE ONCE AT 15 D OF AGE, Promoter: NONE USED
  tumour outcome (control, treated, inhibition, significance): 15/15 (100%), 15/15 (100%), 0%, not significant
Dose [Inhibitor]: 0, 100 PPM IN DIET ADMINISTERED CONCURRENTLY WITH CARCINOGEN FOR 1 WK (STUDY DURATION: 82 WK), Route [Inhibitor]: ORAL, Species: RAT, Strain/Sex: BUFFALO/FEMALE, Target Tissue: Type of Lesion: LIVER: TUMOR, Dose [Carcinogen]: 1 PPM IN DIET FOR 1 WK, Promoter: NONE USED
  tumour outcome (control, treated, inhibition, significance): 6/19 (32%), 1/20 (5%), 84%, not calculated
Dose [Inhibitor]: 0, 100 PPM IN DIET ADMINISTERED CONCURRENTLY WITH CARCINOGEN FOR 3 WK (STUDY DURATION: 82 WK), Route [Inhibitor]: ORAL, Species: RAT, Strain/Sex: BUFFALO/FEMALE, Target Tissue: Type of Lesion: LIVER: TUMOR, Dose [Carcinogen]: 1 PPM IN DIET FOR 3 WK, Promoter: NONE USED
  tumour outcome (control, treated, inhibition, significance): 6/19 (32%), 0/23 (0%), 100%, not calculated
Dose [Inhibitor]: 0, 100 PPM IN DIET ADMINISTERED CONCURRENTLY WITH CARCINOGEN FOR 5 WK (STUDY DURATION: 82 WK), Route [Inhibitor]: ORAL, Species: RAT, Strain/Sex: BUFFALO/FEMALE, Target Tissue: Type of Lesion: LIVER: TUMOR, Dose [Carcinogen]: 1 PPM IN DIET FOR 5 WK, Promoter: NONE USED
  tumour outcome (control, treated, inhibition, significance): 6/19 (32%), 0/17 (0%), 100%, not calculated
Dose [Inhibitor]: 0, 100 PPM IN DIET ADMINISTERED CONCURRENTLY WITH CARCINOGEN FOR 10 WK (STUDY DURATION: 82 WK), Route [Inhibitor]: ORAL, Species: RAT, Strain/Sex: BUFFALO/FEMALE, Target Tissue: Type of Lesion: LIVER: TUMOR, Dose [Carcinogen]: 1 PPM IN DIET FOR 10 WK, Promoter: NONE USED
  tumour outcome (control, treated, inhibition, significance): 6/19 (32%), 0/22 (0%), 100%, not calculated
Dose [Inhibitor]: 0, 100 PPM IN DIET ADMINISTERED CONCURRENTLY WITH CARCINOGEN FOR 15 WK (STUDY DURATION: 82 WK), Route [Inhibitor]: ORAL, Species: RAT, Strain/Sex: BUFFALO/FEMALE, Target Tissue: Type of Lesion: LIVER: TUMOR, Dose [Carcinogen]: 1 PPM IN DIET FOR 15 WK, Promoter: NONE USED
  tumour outcome (control, treated, inhibition, significance): 6/19 (32%), 0/13 (0%), 100%, not calculated
